According to PubChem BioAssay AID1794819:
Non-standard residues stand in square brackets, D forms with d. Residues, ends and D or L forms follow the SMILES beside them. Sar = CNCC(=O)O

Target: Solute carrier family 15 member 2 (Homo sapiens) (UniProt Q16348)
Test: PEPT2 transporter activation by peptide substrates – membrane potential dye, HEK-293 overexpressing cells, pH 6.8/7.4, dose response (AID 1794819)
Conditions: HEK-293 SLC15A2 OE, FLIPR membrane potential dye, as substrate

Sequence of Solute carrier family 15 member 2 (Homo sapiens) (Q16348 whole entry, looked up): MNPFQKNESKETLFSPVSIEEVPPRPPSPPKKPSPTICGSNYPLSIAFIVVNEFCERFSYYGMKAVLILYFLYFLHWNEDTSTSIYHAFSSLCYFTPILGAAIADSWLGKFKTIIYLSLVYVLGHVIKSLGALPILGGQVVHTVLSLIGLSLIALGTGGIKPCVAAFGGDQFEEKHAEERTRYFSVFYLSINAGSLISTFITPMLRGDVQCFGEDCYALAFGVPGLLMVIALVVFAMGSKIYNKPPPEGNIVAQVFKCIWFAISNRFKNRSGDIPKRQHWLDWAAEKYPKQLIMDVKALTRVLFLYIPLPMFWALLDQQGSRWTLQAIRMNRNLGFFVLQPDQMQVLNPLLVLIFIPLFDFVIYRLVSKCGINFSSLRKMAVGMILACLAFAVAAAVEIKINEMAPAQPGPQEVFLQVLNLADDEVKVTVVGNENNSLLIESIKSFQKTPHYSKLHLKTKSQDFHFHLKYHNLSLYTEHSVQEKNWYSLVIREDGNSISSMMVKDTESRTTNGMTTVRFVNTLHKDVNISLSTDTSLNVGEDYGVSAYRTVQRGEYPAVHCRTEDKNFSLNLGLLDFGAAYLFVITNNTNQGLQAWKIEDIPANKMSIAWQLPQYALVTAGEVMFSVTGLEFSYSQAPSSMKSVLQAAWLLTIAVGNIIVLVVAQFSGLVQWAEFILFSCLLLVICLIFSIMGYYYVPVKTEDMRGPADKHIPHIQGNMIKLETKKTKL

SMILES: CN(CC(=O)O)C(=O)CN (H-Gly-[Sar]-OH)
- EC50 (pH 6.8): 39 µM
- EC50 (pH 7.4): 123 µM

SMILES: NCCC(=O)N[C@@H](Cc1cnc[nH]1)C(=O)O
- EC50 (pH 6.8): 28 µM
